Results from ChEMBL document CHEMBL1141254, “Daphnimacropodines A-D, alkaloids from Daphniphyllum macropodum” (J Nat Prod, 2007).
Calls of active or inactive are those of the source.

Assays:
Format in all cases: functional, cell-based
Platelet [1] = assay: Inhibition of PAF-induced platelet aggregation
Platelet [2] = assay: Inhibition of AA-induced platelet aggregation
Platelet [3] = assay: Inhibition of ADP-induced platelet aggregation

Measured: Activity

C[C@@H]1CN2C(=O)CC[C@@]34C5=CCC[C@@H]5CCC5[C@H](O)OC[C@]53CC[C@H]1[C@H]24 (some centres not stated)
inactive: Platelet [1] | Platelet [2] | Platelet [3]

C[C@@H]1CN(C=O)[C@H]2[C@@H]1CC[C@@]1(CO)C(=O)CC[C@H]3CCC=C3[C@@]21CCC(=O)O
inactive: Platelet [1] | Platelet [2] | Platelet [3]

C[C@@H]1CN(C=O)[C@H]2[C@@H]1CC[C@]13COC(=O)CC[C@]21C1=CCC[C@@H]1CCC3=O
inactive: Platelet [1] | Platelet [2] | Platelet [3]

COC(=O)CC[C@@]12C3=CCC[C@@H]3CC[C@@H]3CN4C[C@@H](C)C(CC[C@@]31CO)C42 (some centres not stated)
inactive: Platelet [1] | Platelet [2] | Platelet [3]
